# Experimental data reported in ChEMBL document CHEMBL1153316, “Selectivity profiling of DegP substrates and inhibitors” (Bioorg Med Chem, 2009).
# Peptide text beside a SMILES is read from it.
# Experiments:
# [1] = Inhibition of subtilisin assessed as specific activity at 0.5 mM; parameters: scale not given: the % may be the effect or the level left
# Escherichia coli [2] = experiment: Inhibition of Escherichia coli degP assessed as specific activity at 0.5 mM; parameters: scale not given: the % may be the effect or the level left
# [3] = Inhibition of chymotrypsin assessed as specific activity at 0.5 mM; parameters: scale not given: the % may be the effect or the level left
# [4] = Inhibition of elastase assessed as specific activity at 0.5 mM; parameters: scale not given: the % may be the effect or the level left
# [5] = molecular target: Prothrombin (Homo sapiens) (UniProt P00734); experiment: Inhibition of thrombin assessed as specific activity at 0.5 mM; parameters: scale not given: the % may be the effect or the level left
# [6] = molecular target: Plasminogen (Homo sapiens) (UniProt P00747); experiment: Inhibition of plasmin assessed as specific activity at 0.5 mM; parameters: scale not given: the % may be the effect or the level left
# [7] = Inhibition of trypsin assessed as specific activity at 0.5 mM; parameters: scale not given: the % may be the effect or the level left
# [8] = Inhibition of kallikrein assessed as specific activity at 0.5 mM; parameters: scale not given: the % may be the effect or the level left
# Escherichia coli [9] = experiment: Inhibition of Escherichia coli degP assessed as residual proteolytic activity at 0.5 mM
# [10] = molecular target: Prothrombin (Homo sapiens) (UniProt P00734); experiment: Inhibition of thrombin assessed as residual proteolytic activity at 0.5 mM
# [11] = Inhibition of subtilisin assessed as residual proteolytic activity at 0.5 mM
# [12] = Inhibition of chymotrypsin assessed as residual proteolytic activity at 0.5 mM
# [13] = Inhibition of trypsin assessed as residual proteolytic activity at 0.5 mM
# [14] = Inhibition of kallikrein assessed as residual proteolytic activity at 0.5 mM
# [15] = Inhibition of elastase assessed as residual proteolytic activity at 0.5 mM
# [16] = molecular target: Plasminogen (Homo sapiens) (UniProt P00747); experiment: Inhibition of plasmin assessed as residual proteolytic activity at 0.5 mM
# Chain of Plasminogen (Homo sapiens) (P00747 97-580 limits assumed): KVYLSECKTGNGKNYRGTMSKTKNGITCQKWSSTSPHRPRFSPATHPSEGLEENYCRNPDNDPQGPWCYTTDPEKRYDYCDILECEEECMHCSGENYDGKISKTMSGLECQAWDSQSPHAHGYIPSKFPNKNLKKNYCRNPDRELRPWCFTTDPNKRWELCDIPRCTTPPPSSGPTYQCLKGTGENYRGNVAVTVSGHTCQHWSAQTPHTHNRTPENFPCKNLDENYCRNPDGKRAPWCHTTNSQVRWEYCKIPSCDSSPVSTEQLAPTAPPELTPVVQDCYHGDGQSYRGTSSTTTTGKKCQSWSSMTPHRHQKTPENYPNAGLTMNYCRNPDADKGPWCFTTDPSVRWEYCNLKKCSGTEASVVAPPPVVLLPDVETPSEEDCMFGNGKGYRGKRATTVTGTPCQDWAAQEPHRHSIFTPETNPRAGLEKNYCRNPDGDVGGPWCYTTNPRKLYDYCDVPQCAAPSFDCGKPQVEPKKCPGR
# Chain of Plasminogen (Homo sapiens) (P00747 581-810 limits assumed): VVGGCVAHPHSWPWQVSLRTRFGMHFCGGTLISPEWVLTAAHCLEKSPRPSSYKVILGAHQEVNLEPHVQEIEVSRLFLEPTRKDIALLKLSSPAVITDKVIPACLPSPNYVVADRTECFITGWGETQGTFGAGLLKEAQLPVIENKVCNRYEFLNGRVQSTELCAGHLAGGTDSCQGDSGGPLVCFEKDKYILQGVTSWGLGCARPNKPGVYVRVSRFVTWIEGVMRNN
Activity (Escherichia coli [9]) [%],Activity [10] [%],Activity [11] [%],Activity [12] [%],Activity [13] [%],Activity [14] [%],Activity [15] [%],Activity [16] [%],Compound,Activity [1] [%],Activity (Escherichia coli [2]) [%],Activity [3] [%],Activity [4] [%],Activity [5] [%],Activity [6] [%],Activity [7] [%],Activity [8] [%]
101,98,15,78,410,111,60,74,CC[C@H](C)[C@H](N)C(=O)N[C@@H](Cc1c[nH]c2ccccc12)C(=O)N[C@@H](CC(N)=O)C(=O)N[C@H](C(=O)N[C@@H](CC(C)C)C(=O)N[C@@H](CC(N)=O)C(=O)N[C@@H](CO)C(=O)NCC(=O)N[C@@H](CCCNC(=N)N)C(=O)N[C@H](C(=O)N[C@H](C(=O)N1CCC[C@H]1C(=O)NCC(=O)N[C@H](C(=O)NCC(=O)N[C@@H](Cc1cnc[nH]1)C(=O)N[C@@H](C)C(=O)CCl)[C@@H](C)O)C(C)C)C(C)C)[C@@H](C)O (HELM PEPTIDE1{I.W.N.T.L.N.S.G.R.V.V.P.G.T.G.H.A.[ClC[*:1]]}$$$$V2.0),,,,,,,,
102,131,15,69,285,135,83,62,CC(C)[C@H](NC(=O)[C@H](CCCNC(=N)N)NC(=O)CNC(=O)[C@@H](N)CO)C(=O)N[C@H](C(=O)N1CCC[C@H]1C(=O)NCC(=O)N[C@@H](Cc1ccc(O)cc1)C(=O)NCC(=O)N[C@@H](Cc1cnc[nH]1)C(=O)N[C@@H](C)C(=O)CCl)C(C)C (HELM PEPTIDE1{S.G.R.V.V.P.G.Y.G.H.A.[ClC[*:1]]}$$$$V2.0),,,,,,,,
57,102,155,22,287,88,< 1,75,CSCC[C@H](NC(=O)[C@H](CCSC)NC(=O)[C@@H]1CCCN1C(=O)[C@H](CC(C)C)NC(=O)[C@@H](NC(=O)[C@H](CC(N)=O)NC(=O)[C@H](Cc1ccccc1)NC(=O)[C@@H](N)C(C)C)[C@@H](C)O)C(=O)NCC(=O)N[C@@H](CCCCN)C(=O)N[C@@H](C)C(=O)N[C@@H](CO)C(=O)N1CCC[C@H]1C(=O)N[C@H](C(=O)CCl)C(C)C (HELM PEPTIDE1{V.F.N.T.L.P.M.M.G.K.A.S.P.V.[ClC[*:1]]}$$$$V2.0),,,,,,,,

# Continued, compound first:
Compound,Activity (Escherichia coli [9]) [%],Activity [10] [%],Activity [11] [%],Activity [12] [%],Activity [13] [%],Activity [14] [%],Activity [15] [%],Activity [16] [%],Activity [1] [%],Activity (Escherichia coli [2]) [%],Activity [3] [%],Activity [4] [%],Activity [5] [%],Activity [6] [%],Activity [7] [%],Activity [8] [%]
N=C(N)NCCC[C@H](NC(=O)c1ccccc1)C(=O)Nc1ccc([N+](=O)[O-])cc1,,,,,,,,,< 1,< 1,< 1,< 1,3,< 1,758,24
CSCC[C@H](NC(=O)[C@@H]1CCCN1C(=O)[C@@H](N)CO)C(=O)N[C@@H](Cc1ccccc1)C(=O)N[C@@H](CCCCN)C(=O)NCC(=O)N[C@H](C(=O)Nc1ccc([N+](=O)[O-])cc1)C(C)C (HELM PEPTIDE1{S.P.M.F.K.G.V.[O=[N+]([O-])c1ccc(N[*:1])cc1]}$$$$V2.0),,,,,,,,,3,18,< 1,7,< 1,< 1,< 1,< 1
CSCC[C@H](NC(=O)[C@H](CCSC)NC(=O)[C@@H]1CCCN1C(=O)[C@H](CC(C)C)NC(=O)[C@@H](NC(=O)[C@H](CC(N)=O)NC(=O)[C@H](Cc1ccccc1)NC(=O)[C@@H](NC(=O)[C@@H]1CCCN1)C(C)C)[C@H](C)O)C(=O)NCC(=O)N[C@@H](CCCCN)C(=O)N[C@@H](C)C(=O)N[C@@H](CO)C(=O)N1CCC[C@H]1C(=O)N[C@H](C(=O)Nc1ccc([N+](=O)[O-])cc1)C(C)C,,,,,,,,,< 1,18,3,69,< 1,< 1,1,< 1
CSCC[C@H](NC(=O)[C@H](CCSC)NC(=O)[C@@H]1CCCN1)C(=O)NCC(=O)N[C@@H](CCCCN)C(=O)N[C@@H](C)C(=O)N[C@@H](CO)C(=O)N1CCC[C@H]1C(=O)N[C@H](C(=O)CCl)C(C)C (HELM PEPTIDE1{P.M.M.G.K.A.S.P.V.[ClC[*:1]]}$$$$V2.0),49,122,5,53,348,108,< 1,71,,,,,,,,
CSCC[C@H](NC(=O)[C@H](CCSC)NC(=O)[C@@H]1CCCN1)C(=O)NCC(=O)N[C@@H](CCCCN)C(=O)N[C@@H](C)C(=O)N[C@@H](CO)C(=O)N1CCC[C@H]1C(=O)N[C@H](C(=O)Nc1ccc([N+](=O)[O-])cc1)C(C)C (HELM PEPTIDE1{P.M.M.G.K.A.S.P.V.[O=[N+]([O-])c1ccc(N[*:1])cc1]}$$$$V2.0),,,,,,,,,< 1,1,< 1,96,< 1,4,< 1,< 1
CSCC[C@H](NC(=O)[C@H](CCSC)NC(=O)[C@@H]1CCCN1C(=O)[C@H](CC(C)C)NC(=O)[C@@H](NC(=O)[C@H](CC(N)=O)NC(=O)[C@H](Cc1ccccc1)NC(=O)[C@@H](N)C(C)C)[C@@H](C)O)C(=O)NCC(=O)N[C@@H](CCCCN)C(=O)N[C@@H](C)C(=O)N[C@@H](CO)C(=O)N1CCC[C@H]1C(=O)N[C@H](C(=O)Nc1ccc([N+](=O)[O-])cc1)C(C)C (HELM PEPTIDE1{V.F.N.T.L.P.M.M.G.K.A.S.P.V.[O=[N+]([O-])c1ccc(N[*:1])cc1]}$$$$V2.0),,,,,,,,,< 1,32,8,89,< 1,< 1,< 1,< 1
CC(C)[C@H](NC(=O)[C@@H]1CCCN1C(=O)[C@@H](NC(=O)[C@H](C)NC(=O)CNC(=O)[C@H](CO)NC(=O)CNC(=O)[C@H](CO)NC(=O)[C@H](CC(N)=O)NC(=O)[C@H](CCCCN)NC(=O)CNC(=O)[C@@H](N)CCCCN)[C@@H](C)O)C(=O)Nc1ccc([N+](=O)[O-])cc1 (HELM PEPTIDE1{K.G.K.N.S.G.S.G.A.T.P.V.[O=[N+]([O-])c1ccc(N[*:1])cc1]}$$$$V2.0),,,,,,,,,34,< 1,5,74,< 1,< 1,< 1,< 1
CC(C)C[C@H](NC(=O)CN)C(=O)N[C@@H](C)C(=O)N[C@H](C(=O)NCC(=O)N[C@@H](CC(N)=O)C(=O)N[C@H](C(=O)N[C@@H](CO)C(=O)N[C@H](C(=O)N[C@@H](C)C(=O)N[C@@H](CCC(=O)O)C(=O)N[C@@H](CC(C)C)C(=O)N[C@@H](CCC(N)=O)C(=O)N[C@@H](CC(=O)O)C(=O)N[C@@H](C)C(=O)N[C@H](C(=O)N1CCC[C@H]1C(=O)N[C@@H](C)C(=O)Nc1ccc([N+](=O)[O-])cc1)[C@H](C)O)[C@@H](C)O)C(C)C)[C@@H](C)O,,,,,,,,,1520,< 1,26,24,< 1,< 1,< 1,< 1
CC(C)[C@H](NC(=O)[C@H](CCCNC(=N)N)NC(=O)CNC(=O)[C@@H](N)CO)C(=O)N[C@H](C(=O)N1CCC[C@H]1C(=O)NCC(=O)N[C@@H](Cc1ccc(O)cc1)C(=O)NCC(=O)N[C@@H](Cc1cnc[nH]1)C(=O)N[C@@H](C)C(=O)Nc1ccc([N+](=O)[O-])cc1)C(C)C (HELM PEPTIDE1{S.G.R.V.V.P.G.Y.G.H.A.[O=[N+]([O-])c1ccc(N[*:1])cc1]}$$$$V2.0),,,,,,,,,2970,< 1,< 1,56,< 1,< 1,< 1,< 1
CC(C)[C@H](NC(=O)[C@H](CCC(=O)O)NC(=O)[C@H](Cc1ccc(O)cc1)NC(=O)CNC(=O)[C@H](CO)NC(=O)[C@H](CC(=O)O)NC(=O)[C@H](Cc1cnc[nH]1)NC(=O)[C@H](CCCNC(=N)N)NC(=O)[C@H](Cc1ccccc1)NC(=O)[C@H](CCC(=O)O)NC(=O)[C@H](C)NC(=O)[C@H](CC(=O)O)NC(=O)[C@@H](N)CO)C(=O)Nc1ccc([N+](=O)[O-])cc1,,,,,,,,,2,< 1,< 1,8,< 1,< 1,< 1,< 1
CC(C)C[C@H](NC(=O)CNC(=O)[C@H](C)NC(=O)CNC(=O)[C@@H]1CCCN1C(=O)[C@@H](NC(=O)[C@H](CO)NC(=O)[C@H](C)NC(=O)CNC(=O)[C@@H](N)CCCCN)C(C)C)C(=O)N[C@H](C(=O)Nc1ccc([N+](=O)[O-])cc1)C(C)C (HELM PEPTIDE1{K.G.A.S.V.P.G.A.G.L.V.[O=[N+]([O-])c1ccc(N[*:1])cc1]}$$$$V2.0),,,,,,,,,< 1,< 1,< 1,6,< 1,< 1,< 1,< 1
CC(C)[C@H](NC(=O)CNC(=O)CNC(=O)[C@H](CC(=O)O)NC(=O)[C@@H](NC(=O)[C@@H](N)CO)[C@@H](C)O)C(=O)Nc1ccc([N+](=O)[O-])cc1 (HELM PEPTIDE1{S.T.D.G.G.V.[O=[N+]([O-])c1ccc(N[*:1])cc1]}$$$$V2.0),,,,,,,,,< 1,< 1,< 1,5,< 1,2,< 1,< 1
